Test results: patent US7297332B2, “Protease, a gene therefor and the use thereof” (Korean Research Institute of Bioscience and Biotechnology, priority 2000, dated 2007)
Entries after “also recorded” stand apart in the source; their conditions may differ.

System: protease derived from Aranicola proteolyticus
Experiment: Effect of protease inhibitors on the protease (azocasein assay)
Type: biochemical, Aranicola proteolyticus HY-3
Conditions: for inhibition of the enzyme activity: 1 mM inhibitor, incubated at 37° C. for 5 minutes, azocasein substrate; for effect of metalloprotease inhibitor on protease activity: equal concentrations of inhibitors, FIG. 1
Description: Enzyme activity of the protease was measured according to the method described by Braun & Shmitz (Braun, V. & Schmitz, G., Arch. Microbiol. 124, 55-61, 1980). A substrate solution was prepared by dissolving 0.24 g of azocasein in 10 ml of 50 mM phosphate buffer (pH 7.5). The 300 □ of the substrate solution was mixed with 100 □ of bacterial culture solution and reacted at 37° C. for 30 minutes. Then, 300 □ of 10% trichloride acetate was added to the reaction solution and incubated at ambient temperature for 1 hour. The reaction solution was centrifuged at 7,000 rpm until pellet and supernatant was separated substantially. After adding 30 0 of 10% sodium hydroxide (NaOH) to the supernatant, the absorbance was measured at 420 nm. The enzymatic titer was defined as 1 unit by the 1.0 fold increment of absorbance value.
In order to examine the effects of protease inhibitors on the activity of the protease, the enzyme solution was added by 1 mM each of inhibitors enumerated below and incubated at 37° C. for 5 minutes before measuring relative enzyme activity. The inhibitors tested include antopain which is an aminopeptidase inhibitor, phosphoramidon which is a metalloendopeptidase inhibitor, pepstatin which is an aspartate protease inhibitor, E-64(L-trans-exoxysuccinyl leucylamido(4-fuanidino)butane) which is a cystein inhibitor, chymostatin which is a chymotrypsin inhibitor, leupeptin, petabloc SC, aprotinin, and PMSF which are serine protease inhibitors, phenanthroline and EDTA which are metalloprotease inhibitors.

| Compound | inhibition of the enzyme activity | effect of metalloprotease inhibitor on protease activity |
| --- | --- | --- |
| c1cnc2c(c1)ccc1cccnc12 [phenanthroline] | about 70% | lowered; also recorded: inhibited |
| O=C(O)CN(CCN(CC(=O)O)CC(=O)O)CC(=O)O [EDTA] | about 30% | lowered; also recorded: inhibited |
